Results: patent publication US4345938A, “Herbicidal 2-haloacetanilides” (Monsanto Company, priority 1980, dated 1982)
Read-outs that look alike come from different tables or passages of the source.

Key:
Rice = experiment: Greenhouse transplant rice test, rice injury; format: in vivo, Rice (Bluebelle); conditions: Oryza sativa, about 3 WAT, read-out: Percent Inhibition, Rice
Description: (§1) The test procedure used in this greenhouse test is as follows: Ray silt loam top soil containing about 0.05% by weight of krillium and sifted through a […] screen is fumigated about 5-10 days prior to use. Pots are then filled with said Ray silt loam soil to a level to allow for a 1 in. (2.54 cm) flooding depth. Rice plants (Bluebelle) of 2 to 3 weeks age are transplanted to the pots and bulbs or seeds of the test weeds also planted in the pots. The pots are then flooded and the test chemical applied to the surface of the flood water. The flood water is reduced to allow for germination of the Echinochloa crus-galli (barnyardgrass) seed and subsequently reflooded and maintained in that condition. Observations of percent inhibition using a scale of 0-100% are made about 3 weeks after transplant (WAT).
(§2) The test data in Table III for all compounds was obtained under identical test conditions. The weeds used in the tests herein have the following abbreviations in the tables: Echinochloa crus-galli (EC), Monochloria vaginalis (MV), Cyperus Serotinus (CS), Eleocharis Kuroguwai (EK) and Sagittaria trifolia (ST).

Eleocharis kuroguwai [1] = experiment: Greenhouse transplant rice test, EK; format: in vivo; conditions: about 3 WAT, read-out: Percent Inhibition, EK
Description: as §1, §2

Sagittaria trifolia = experiment: Greenhouse transplant rice test, ST; format: in vivo; conditions: Sagittaria trifolia, about 3 WAT, read-out: Percent Inhibition, ST
Description: as §1, §2

Cyperus serotinus = experiment: Field transplant rice test, applied 0 DAT, CS; format: in vivo; conditions: 0 h, read-out: Percent Inhibition, CS; for inhibition at 375 g/ha: 0.375 Kg/Ha; for inhibition at 750 g/ha: 0.75 Kg/Ha; for inhibition at 1500 g/ha: 1.5 Kg/Ha; for inhibition at 3000 g/ha: 3.0 Kg/Ha
Procedure: as §2
(§3) In further comparative tests, a preferred compound of this invention (Example 1) was tested in the field with prior art Compounds A-D. These tests were conducted under conditions reflecting herbicide application times generally favorable to all herbicides in the test. The timing of application of herbicides to transplant rice is very important, whether, as in some instances, prior to transplanting the rice; in other instances, at the time of transplanting or else after transplanting. Application times are conventionally referred to as "days before transplant" (DBT) or "days after transplant" ("DAT"). The field test data in Table IV was obtained from a test in which the herbicides were applied at the time of transplant, i.e., "0 DAT", with observations being made weekly up to six weeks after transplant ("WAT") beginning at two weeks after transplant; for illustrative and representative purposes, only the early, middle and late period observations, i.e., 2 WAT, 4 WAT and 6 WAT, are shown in Table IV. The data in Table IV is for rates of application common to all herbicides in the test, i.e., from 3.0 kg/ha (2.67 lb/A) down to 0.375 kg/ha (0.34 lb/A). All herbicides were applied at their actual or expected use rates, i.e., as granules containing 2.5% by weight herbicide for the compound of Example 1, Compounds B, C and D and 5.0% by weight for Compound A.

Echinochloa crus-galli = experiment: Field transplant rice test, applied 9 DAT, EC; format: in vivo; conditions: for inhibition at 375 g/ha / inhibition at 750 g/ha / inhibition at 1500 g/ha / inhibition at 3000 g/ha: Echinochloa crus-galli, 216 h, read-out: Percent Inhibition, EC; for inhibition at 375 g/ha: 0.375 Kg/Ha; for inhibition at 750 g/ha: 0.75 Kg/Ha; for inhibition at 1500 g/ha: 1.5 Kg/Ha; for inhibition at 3000 g/ha: 3.0 Kg/Ha
Description: (§4) In the discussion of data below, occasional reference is made to herbicide application rates symbolized as "GR15 " and "GR85 "; these rates are given in kilograms per hectare (kg/ha) which are convertible into pounds per acre (lbs/A) by dividing the kg/ha rate by 1.12.
(§5) A further guide to the effectiveness of a chemical as a selective herbicide is the "selectivity factor" ("SF") for a herbicide in given crops and weeds. The selectivity factor is a measure of the relative degree of crop safety and weed injury and is expressed in terms of the GR15 /GR85 ratio, i.e., the GR15 rate for the crop divided by the GR85 rate for the weed, both rates in kg/ha (lb/A.)
as §2, §3
(§6) In Table V are presented field data showing the relative performance of the compound of Example 1 and Compounds A-D applied 9 DAT, with observations being made weekly from 3 WAT to 7 WAT; again, for illustrative and representative purposes, only the early, middle and late period observations are reported in Table V, the herbicide rates and concentrations of active ingredients the same as is shown in Table IV.

Monochoria vaginalis = experiment: Field transplant rice test, applied 9 DAT, MV; format: in vivo; conditions: for inhibition at 375 g/ha / inhibition at 750 g/ha / inhibition at 1500 g/ha / inhibition at 3000 g/ha: Pontederia vaginalis, 216 h, read-out: Percent Inhibition, MV; for inhibition at 375 g/ha: 0.375 Kg/Ha; for inhibition at 750 g/ha: 0.75 Kg/Ha; for inhibition at 1500 g/ha: 1.5 Kg/Ha; for inhibition at 3000 g/ha: 3.0 Kg/Ha
Description: as §4, §5, §2, §3, §6

Eleocharis kuroguwai [2] = experiment: Field transplant rice test, applied 9 DAT, EK; format: in vivo; conditions: for inhibition at 375 g/ha / inhibition at 750 g/ha / inhibition at 1500 g/ha / inhibition at 3000 g/ha: Eleocharis kuroguwai, 216 h, read-out: Percent Inhibition, EK; for inhibition at 375 g/ha: 0.375 Kg/Ha; for inhibition at 750 g/ha: 0.75 Kg/Ha; for inhibition at 1500 g/ha: 1.5 Kg/Ha; for inhibition at 3000 g/ha: 3.0 Kg/Ha
Description: as §4, §5, §2, §3, §6

## CCCCOc1cccc(CC)c1N(CC)C(=O)CCl [Example 2, N-ethyl-2'-n-butoxy-6'-ethyl-2-chloroacetanilide]
Rice; 0.28 Kg/Ha
  inhibition at 280 g/ha: 0%
Rice; 0.56 Kg/Ha
  inhibition at 560 g/ha: 10%
Rice; 1.12 Kg/Ha
  inhibition at 1120 g/ha: 15%
Rice; 2.24 Kg/Ha
  inhibition at 2240 g/ha: 25%
Eleocharis kuroguwai [1]; 0.28 Kg/Ha
  inhibition at 280 g/ha: 100%
Eleocharis kuroguwai [1]; 0.56 Kg/Ha
  inhibition at 560 g/ha: 100%
Eleocharis kuroguwai [1]; 1.12 Kg/Ha
  inhibition at 1120 g/ha: 100%
Eleocharis kuroguwai [1]; 2.24 Kg/Ha
  inhibition at 2240 g/ha: 100%
Sagittaria trifolia; 0.28 Kg/Ha
  inhibition at 280 g/ha: 30%
Sagittaria trifolia; 0.56 Kg/Ha
  inhibition at 560 g/ha: 25%
Sagittaria trifolia; 1.12 Kg/Ha
  inhibition at 1120 g/ha: 70%
Sagittaria trifolia; 2.24 Kg/Ha
  inhibition at 2240 g/ha: 55%

## CCCOCCN(C(=O)CCl)c1c(CC)cccc1CC [Compound D, 2',6'-diethyl-N-(n-propoxyethyl)-2-chloroacetanilide]
Cyperus serotinus; 2 WAT
  inhibition at 375 g/ha: 82%
  inhibition at 750 g/ha: 73%
  inhibition at 1500 g/ha: 92%
  inhibition at 3000 g/ha: 67%
Cyperus serotinus; 4 WAT
  inhibition at 375 g/ha: 65%
  inhibition at 750 g/ha: 77%
  inhibition at 1500 g/ha: 93%
  inhibition at 3000 g/ha: 65%
Cyperus serotinus; 6 WAT
  inhibition at 375 g/ha: 33%
  inhibition at 750 g/ha: 70%
  inhibition at 1500 g/ha: 93%
  inhibition at 3000 g/ha: 60%
Echinochloa crus-galli; 3 WAT
  inhibition at 375 g/ha: 62%
  inhibition at 750 g/ha: 88%
  inhibition at 1500 g/ha: 78%
  inhibition at 3000 g/ha: 100%
Echinochloa crus-galli; 5 WAT
  inhibition at 375 g/ha: 48%
  inhibition at 750 g/ha: 92%
  inhibition at 1500 g/ha: 75%
  inhibition at 3000 g/ha: 100%
Echinochloa crus-galli; 7 WAT
  inhibition at 375 g/ha: 57%
  inhibition at 750 g/ha: 88%
  inhibition at 1500 g/ha: 78%
  inhibition at 3000 g/ha: 100%
Echinochloa crus-galli; between 3 WAT and 7 WAT
  selectivity factor (GR15/GR85), EC in transplant rice: 1
Monochoria vaginalis; 3 WAT
  inhibition at 375 g/ha: 95%
  inhibition at 750 g/ha: 100%
  inhibition at 1500 g/ha: 100%
  inhibition at 3000 g/ha: 100%
Monochoria vaginalis; 5 WAT
  inhibition at 375 g/ha: 98%
  inhibition at 750 g/ha: 87%
  inhibition at 1500 g/ha: 100%
  inhibition at 3000 g/ha: 100%
Monochoria vaginalis; 7 WAT
  inhibition at 375 g/ha: 95%
  inhibition at 750 g/ha: 100%
  inhibition at 1500 g/ha: 100%
  inhibition at 3000 g/ha: 100%
Monochoria vaginalis; between 3 WAT and 7 WAT
  selectivity factor (GR15/GR85), MV in transplant rice: 8
Eleocharis kuroguwai [2]; 3 WAT
  selectivity factor (GR15/GR85), EK in transplant rice: about 1
  inhibition at 375 g/ha: 50%
  inhibition at 750 g/ha: 45%
  inhibition at 1500 g/ha: 52%
  inhibition at 3000 g/ha: 84%
Eleocharis kuroguwai [2]; 5 WAT
  inhibition at 375 g/ha: 23%
  inhibition at 750 g/ha: 20%
  inhibition at 1500 g/ha: 30%
  inhibition at 3000 g/ha: 78%
Eleocharis kuroguwai [2]; 7 WAT
  inhibition at 375 g/ha: 0%
  inhibition at 750 g/ha: 0%
  inhibition at 1500 g/ha: 0%
  inhibition at 3000 g/ha: 45%
